Measured values reported in ChEMBL document CHEMBL1201862, “PubChem BioAssay data set” (2004).
Active and inactive are the calls of the source.

How the values were obtained:
[1] = target: Genome polyprotein (Hepatitis C virus, UniProt Q2Q167); experiment: HCV core protein dimerization inhibitors, dose response, biochemical, TR-FRET (AID 2159); parameters: species or system Hepacivirus hominis;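 also: blocks dimerization of HCV core protein measured by TR-FRET between tagged core106 pairs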
[2] = target: T1, SUMO-activating enzyme (Homo sapiens, UniProt Q9UBT2); experiment: SUMOylation inhibitor hit validation, confirmation, SUMOylation inhibitor project, biochemical, AlphaScreen (AID 2018); type: functional
[3] = target: T1, SUMO-activating enzyme; experiment: inhibitors of in vitro SUMOylation cascade, primary screen, biochemical, HTRF, uHTS (AID 2006); type: protein-complex assay
[4] = target: Induced myeloid leukemia cell differentiation protein Mcl-1 (Homo sapiens, UniProt Q07820); type: functional
[5] = target: Eukaryotic translation initiation factor 4E (Mus musculus, UniProt P63073); experiment: eIF4E–eIF4G protein interaction inhibitors, dose response, biochemical, TR-FRET (AID 855); type: functional;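 also: potency for disrupting eIF4E binding to eIF4GI seen as loss of FRET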
[6] = target: T2, Carboxy-terminal domain RNA polymerase II polypeptide A small phosphatase 1 (Homo sapiens, UniProt Q9GZU7); experiment: inhibitors of CTDSP1, concentration-response testing, biochemical assay, absorbance-based, actives from ultra-high-throughput screening (AID 540297); type: functional
T2 sequence (Q9GZU7 whole entry): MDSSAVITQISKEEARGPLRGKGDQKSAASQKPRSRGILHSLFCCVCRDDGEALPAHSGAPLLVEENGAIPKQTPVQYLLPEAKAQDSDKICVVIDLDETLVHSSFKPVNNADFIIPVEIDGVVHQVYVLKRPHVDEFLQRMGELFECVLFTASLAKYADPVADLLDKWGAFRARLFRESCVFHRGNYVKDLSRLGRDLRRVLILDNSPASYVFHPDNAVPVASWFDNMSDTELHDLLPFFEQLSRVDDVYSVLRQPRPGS

[7] = inhibitors of intracellular T. cruzi replication, confirmation, NIH3T3 host cells, beta-gal luminescence (AID 2044); type: functional, cell-based;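 also: intracellular parasites grown in NIH/3T3 mouse fibroblasts as host cells; luminescent beta-galactosidase reporter signal from transgenic T. cruzi replicating inside host cells; inhibitors lower the luminescence signal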
[8] = cytotoxicity toward NIH3T3 fibroblasts, dose response, counter-screen, cell-based, ATP luminescence, mouse fibroblasts (AID 2010); type: functional;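 also: cells exposed to compound for about 90 hours before reading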
[9] = cells
[10] = target: Serine/threonine-protein phosphatase PP1-alpha catalytic subunit (Homo sapiens, UniProt P62136); experiment: PP1 phosphatase inhibitors, dose response, biochemical, fluorescence (AID 2394)
[11] = target: T3, Serine/threonine-protein phosphatase (Homo sapiens, UniProt Q9BPW0); experiment: PP5 phosphatase inhibitors, dose response, biochemical, fluorescence (AID 2395)
T3 sequence (Q9BPW0 whole entry): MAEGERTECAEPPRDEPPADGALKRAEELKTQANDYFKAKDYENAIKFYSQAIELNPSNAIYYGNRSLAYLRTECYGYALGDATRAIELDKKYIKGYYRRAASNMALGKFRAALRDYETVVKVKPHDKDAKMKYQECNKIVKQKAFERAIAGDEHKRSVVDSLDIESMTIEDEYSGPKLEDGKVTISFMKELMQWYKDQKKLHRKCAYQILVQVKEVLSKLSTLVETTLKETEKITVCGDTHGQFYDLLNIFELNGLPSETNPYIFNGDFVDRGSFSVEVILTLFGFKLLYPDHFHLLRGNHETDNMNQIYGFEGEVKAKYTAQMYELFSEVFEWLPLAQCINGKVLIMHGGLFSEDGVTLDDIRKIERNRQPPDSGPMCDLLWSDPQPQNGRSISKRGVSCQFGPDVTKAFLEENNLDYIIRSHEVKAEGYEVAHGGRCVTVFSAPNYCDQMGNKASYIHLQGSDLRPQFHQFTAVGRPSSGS

[12] = target: T4, Caspase-3 (Homo sapiens, UniProt P42574); type: functional;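 also: Dose-response selectivity test against caspase-3 for candidate inhibitors of sentrin-specific proteases (SENPs)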
T4 sequence (P42574 whole entry): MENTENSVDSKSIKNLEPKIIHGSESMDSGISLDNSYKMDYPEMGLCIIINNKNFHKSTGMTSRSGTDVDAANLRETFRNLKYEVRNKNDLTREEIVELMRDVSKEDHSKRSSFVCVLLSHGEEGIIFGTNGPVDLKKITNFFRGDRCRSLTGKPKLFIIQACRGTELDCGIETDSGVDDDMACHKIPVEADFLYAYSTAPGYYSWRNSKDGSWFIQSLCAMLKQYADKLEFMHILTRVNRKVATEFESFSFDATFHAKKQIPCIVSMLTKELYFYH

[13] = target: T5, Sentrin-specific protease 7 (Homo sapiens, UniProt Q9BQF6); type: functional;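 also: Luminescence-based dose-response confirmation of ultra-high-throughput screening hits, measuring inhibition of SENP7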
T5 sequence (Q9BQF6 whole entry): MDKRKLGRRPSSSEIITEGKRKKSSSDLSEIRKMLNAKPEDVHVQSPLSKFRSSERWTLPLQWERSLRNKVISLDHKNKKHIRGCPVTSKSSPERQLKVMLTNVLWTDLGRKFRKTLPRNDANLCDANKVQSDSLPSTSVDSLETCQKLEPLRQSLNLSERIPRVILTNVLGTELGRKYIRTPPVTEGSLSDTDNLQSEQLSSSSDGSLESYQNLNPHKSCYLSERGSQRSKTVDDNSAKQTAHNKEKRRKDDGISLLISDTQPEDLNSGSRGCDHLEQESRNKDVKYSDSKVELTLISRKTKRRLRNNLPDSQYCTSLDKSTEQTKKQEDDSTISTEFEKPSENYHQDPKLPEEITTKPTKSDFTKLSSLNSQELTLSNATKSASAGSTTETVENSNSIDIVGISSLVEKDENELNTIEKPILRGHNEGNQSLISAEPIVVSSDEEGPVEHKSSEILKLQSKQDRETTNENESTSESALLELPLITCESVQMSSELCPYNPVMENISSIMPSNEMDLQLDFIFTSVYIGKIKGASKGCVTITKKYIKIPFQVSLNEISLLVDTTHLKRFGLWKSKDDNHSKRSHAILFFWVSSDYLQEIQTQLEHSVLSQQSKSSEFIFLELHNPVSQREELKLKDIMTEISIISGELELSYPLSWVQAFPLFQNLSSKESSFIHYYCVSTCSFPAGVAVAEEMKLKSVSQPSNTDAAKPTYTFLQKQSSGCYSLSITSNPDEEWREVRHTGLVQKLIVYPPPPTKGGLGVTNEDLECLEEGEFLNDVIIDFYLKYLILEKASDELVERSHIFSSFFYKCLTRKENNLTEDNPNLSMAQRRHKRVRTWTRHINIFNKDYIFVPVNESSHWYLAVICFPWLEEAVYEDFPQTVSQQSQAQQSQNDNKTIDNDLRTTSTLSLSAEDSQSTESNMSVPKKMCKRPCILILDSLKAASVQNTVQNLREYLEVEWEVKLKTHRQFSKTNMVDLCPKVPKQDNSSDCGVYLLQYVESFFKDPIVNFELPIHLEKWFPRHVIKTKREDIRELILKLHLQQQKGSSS

[14] = target: T6, Sentrin-specific protease 6 (Homo sapiens, UniProt Q9GZR1); type: functional;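 also: Luminescence-based dose-response confirmatory assay of SENP6 inhibition, following up an ultra-high-throughput screen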
T6 sequence (Q9GZR1 whole entry): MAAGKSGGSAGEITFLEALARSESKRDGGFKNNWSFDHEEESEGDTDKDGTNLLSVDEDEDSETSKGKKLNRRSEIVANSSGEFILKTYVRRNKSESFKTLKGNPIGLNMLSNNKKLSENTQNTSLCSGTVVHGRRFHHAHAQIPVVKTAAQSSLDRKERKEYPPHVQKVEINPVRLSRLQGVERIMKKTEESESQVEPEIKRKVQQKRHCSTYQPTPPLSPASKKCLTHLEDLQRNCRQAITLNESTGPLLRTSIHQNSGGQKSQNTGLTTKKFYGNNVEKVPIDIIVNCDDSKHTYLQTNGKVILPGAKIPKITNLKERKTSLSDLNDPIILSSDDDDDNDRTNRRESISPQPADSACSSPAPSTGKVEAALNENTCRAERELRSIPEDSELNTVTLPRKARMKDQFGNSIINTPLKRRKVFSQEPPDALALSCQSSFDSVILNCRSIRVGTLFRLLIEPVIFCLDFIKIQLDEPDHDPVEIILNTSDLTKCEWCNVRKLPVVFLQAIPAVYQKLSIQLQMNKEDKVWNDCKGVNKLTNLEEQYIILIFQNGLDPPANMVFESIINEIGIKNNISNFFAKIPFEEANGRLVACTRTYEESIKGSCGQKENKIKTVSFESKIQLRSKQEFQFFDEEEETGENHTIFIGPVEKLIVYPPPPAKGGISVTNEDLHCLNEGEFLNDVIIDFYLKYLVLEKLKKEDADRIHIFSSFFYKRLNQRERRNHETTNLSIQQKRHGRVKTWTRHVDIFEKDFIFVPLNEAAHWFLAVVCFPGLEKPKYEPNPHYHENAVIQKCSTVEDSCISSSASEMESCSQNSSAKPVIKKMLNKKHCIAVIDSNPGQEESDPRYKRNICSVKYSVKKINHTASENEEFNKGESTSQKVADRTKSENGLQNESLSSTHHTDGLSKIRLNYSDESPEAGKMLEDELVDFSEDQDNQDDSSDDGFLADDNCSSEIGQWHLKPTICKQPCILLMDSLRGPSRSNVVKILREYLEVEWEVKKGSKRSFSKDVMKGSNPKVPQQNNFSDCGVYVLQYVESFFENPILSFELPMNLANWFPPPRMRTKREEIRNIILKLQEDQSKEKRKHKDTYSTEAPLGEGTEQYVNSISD

[15] = target: T7, Sentrin-specific protease 8 (Homo sapiens, UniProt Q96LD8); type: functional;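 also: luminescence read-out of SENP8 inhibition, dose-response confirmation following an ultra-high-throughput screen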
T7 sequence (Q96LD8 whole entry): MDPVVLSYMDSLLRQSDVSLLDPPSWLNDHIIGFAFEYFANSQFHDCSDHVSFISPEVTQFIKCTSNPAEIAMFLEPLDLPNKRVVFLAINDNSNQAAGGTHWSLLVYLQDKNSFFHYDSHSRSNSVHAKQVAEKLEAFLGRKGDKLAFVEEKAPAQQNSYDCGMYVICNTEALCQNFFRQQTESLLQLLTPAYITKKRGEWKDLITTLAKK

[16] = M. tuberculosis growth inhibition, HTS (AID 449762); type: functional
[17] = target: E3 ubiquitin-protein ligase Mdm2 (Homo sapiens, UniProt Q00987); experiment: enhancers of MDM2-luciferase reporter signal, concentration-effect titration, project on inhibitors of MDM2 ubiquitin ligase, cellular assay, luminescent readout, 384-well plate format (AID 1394); type: functional;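 also: MDM2 E3 inhibitors raise luminescence so EC50 is for signal enhancement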
[18] = target: T8, Rac GTPase-activating protein 1 (Homo sapiens, UniProt Q9H0H5); experiment: MgcRacGAP GTPase-activating activity inhibitors, confirmation, biochemical, ADP Hunter fluorescence, primary and confirmatory (AID 624330); type: functional
T8 sequence (Q9H0H5 whole entry): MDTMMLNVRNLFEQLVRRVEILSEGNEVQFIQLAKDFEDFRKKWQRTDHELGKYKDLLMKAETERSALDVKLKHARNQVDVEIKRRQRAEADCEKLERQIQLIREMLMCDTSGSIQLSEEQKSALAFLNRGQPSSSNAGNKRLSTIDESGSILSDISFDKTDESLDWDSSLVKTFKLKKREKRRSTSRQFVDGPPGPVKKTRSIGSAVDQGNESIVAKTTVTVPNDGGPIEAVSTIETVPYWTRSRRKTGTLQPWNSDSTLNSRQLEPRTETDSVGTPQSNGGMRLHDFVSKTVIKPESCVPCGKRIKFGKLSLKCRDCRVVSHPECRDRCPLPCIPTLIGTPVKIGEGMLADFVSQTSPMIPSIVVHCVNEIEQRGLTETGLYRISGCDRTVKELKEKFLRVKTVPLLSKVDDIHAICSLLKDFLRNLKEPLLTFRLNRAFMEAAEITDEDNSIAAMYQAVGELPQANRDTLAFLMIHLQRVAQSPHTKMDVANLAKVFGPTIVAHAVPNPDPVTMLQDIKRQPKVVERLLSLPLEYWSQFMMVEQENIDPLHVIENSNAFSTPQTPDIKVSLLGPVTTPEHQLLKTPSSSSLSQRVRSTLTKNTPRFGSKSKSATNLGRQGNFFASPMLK

[19] = Luminescence Cell-Based Dose Response HTS to Identify Activators of Luciferase Translation or Activity in H4 […] Cells. [Related pubchem assays: 1829 (Project Summary), 1814 (Primary HTS)]; type: functional
[20] = Luminescence-based dose response cell-based high throughput screening assay for cytotoxic compounds using the IEC-6 intestinal epithelial cell line. [Related pubchem assays: 1858 (Summary AID.), 1825 (Counterscreen.), 1907 (Confirmation screen.)]; type: functional

T1 sequence (Q9UBE0 whole entry): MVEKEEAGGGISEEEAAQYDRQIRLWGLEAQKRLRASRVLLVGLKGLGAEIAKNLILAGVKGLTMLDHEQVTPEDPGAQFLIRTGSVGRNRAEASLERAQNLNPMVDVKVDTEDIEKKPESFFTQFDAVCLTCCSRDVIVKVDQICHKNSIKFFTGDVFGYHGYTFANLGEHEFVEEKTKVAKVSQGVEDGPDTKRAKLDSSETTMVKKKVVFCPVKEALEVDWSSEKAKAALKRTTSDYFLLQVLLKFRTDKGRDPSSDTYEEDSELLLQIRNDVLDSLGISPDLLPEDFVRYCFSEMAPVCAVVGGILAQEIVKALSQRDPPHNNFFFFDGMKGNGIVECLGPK
T1 sequence (Q9UBT2 whole entry): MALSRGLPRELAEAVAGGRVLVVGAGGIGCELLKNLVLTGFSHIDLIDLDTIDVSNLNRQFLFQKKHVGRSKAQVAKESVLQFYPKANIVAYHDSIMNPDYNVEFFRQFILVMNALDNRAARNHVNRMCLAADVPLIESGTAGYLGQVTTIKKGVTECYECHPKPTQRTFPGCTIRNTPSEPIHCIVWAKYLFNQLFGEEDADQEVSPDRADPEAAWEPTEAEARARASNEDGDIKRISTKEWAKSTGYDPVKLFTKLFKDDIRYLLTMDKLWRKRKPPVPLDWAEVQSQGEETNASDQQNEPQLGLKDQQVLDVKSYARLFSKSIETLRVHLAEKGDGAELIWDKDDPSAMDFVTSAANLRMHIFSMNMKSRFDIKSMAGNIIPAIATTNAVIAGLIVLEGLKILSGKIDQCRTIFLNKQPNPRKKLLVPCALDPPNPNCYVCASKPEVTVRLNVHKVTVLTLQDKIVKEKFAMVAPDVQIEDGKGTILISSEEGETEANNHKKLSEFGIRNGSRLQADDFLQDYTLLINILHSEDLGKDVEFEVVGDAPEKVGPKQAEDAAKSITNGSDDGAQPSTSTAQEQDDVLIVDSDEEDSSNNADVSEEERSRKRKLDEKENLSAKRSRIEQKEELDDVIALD
Chain of Genome polyprotein (Q2Q167 whole entry): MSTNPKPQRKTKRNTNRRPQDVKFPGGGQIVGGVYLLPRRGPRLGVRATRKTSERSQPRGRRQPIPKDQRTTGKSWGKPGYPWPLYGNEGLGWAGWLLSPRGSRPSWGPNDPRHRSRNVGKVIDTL
Chain of Eukaryotic translation initiation factor 4E (P63073 whole entry, the tested form may be a part): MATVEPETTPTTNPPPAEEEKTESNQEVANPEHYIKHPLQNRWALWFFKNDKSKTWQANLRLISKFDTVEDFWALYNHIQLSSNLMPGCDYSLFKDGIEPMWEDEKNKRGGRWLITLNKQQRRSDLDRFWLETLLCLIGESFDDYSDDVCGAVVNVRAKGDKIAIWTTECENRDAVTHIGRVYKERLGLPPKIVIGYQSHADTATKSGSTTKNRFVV
Chain of Serine/threonine-protein phosphatase PP1-alpha catalytic subunit (P62136 whole entry): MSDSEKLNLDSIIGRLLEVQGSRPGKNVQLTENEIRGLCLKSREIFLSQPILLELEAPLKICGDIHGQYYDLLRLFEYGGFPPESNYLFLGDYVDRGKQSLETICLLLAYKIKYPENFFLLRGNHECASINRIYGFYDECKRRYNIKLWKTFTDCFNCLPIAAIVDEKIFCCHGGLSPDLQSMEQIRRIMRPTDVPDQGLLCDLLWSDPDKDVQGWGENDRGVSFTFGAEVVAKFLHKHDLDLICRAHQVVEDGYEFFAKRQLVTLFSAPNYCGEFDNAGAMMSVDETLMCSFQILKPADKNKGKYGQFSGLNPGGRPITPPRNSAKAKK
Chain of E3 ubiquitin-protein ligase Mdm2 (Q00987 whole entry): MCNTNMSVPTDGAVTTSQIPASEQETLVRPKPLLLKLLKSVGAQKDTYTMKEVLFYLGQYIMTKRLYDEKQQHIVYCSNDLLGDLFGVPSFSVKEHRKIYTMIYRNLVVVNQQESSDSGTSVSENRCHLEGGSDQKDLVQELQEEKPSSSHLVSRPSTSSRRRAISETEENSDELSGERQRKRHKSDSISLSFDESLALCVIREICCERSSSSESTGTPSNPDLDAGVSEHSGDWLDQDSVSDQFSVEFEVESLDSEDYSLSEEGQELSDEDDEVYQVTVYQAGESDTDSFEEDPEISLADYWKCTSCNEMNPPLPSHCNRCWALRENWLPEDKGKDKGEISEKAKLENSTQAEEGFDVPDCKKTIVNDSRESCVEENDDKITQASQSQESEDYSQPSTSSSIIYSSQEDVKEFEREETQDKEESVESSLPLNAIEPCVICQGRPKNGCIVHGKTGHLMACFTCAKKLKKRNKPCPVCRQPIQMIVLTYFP
Chain of Induced myeloid leukemia cell differentiation protein Mcl-1 (Q07820 whole entry): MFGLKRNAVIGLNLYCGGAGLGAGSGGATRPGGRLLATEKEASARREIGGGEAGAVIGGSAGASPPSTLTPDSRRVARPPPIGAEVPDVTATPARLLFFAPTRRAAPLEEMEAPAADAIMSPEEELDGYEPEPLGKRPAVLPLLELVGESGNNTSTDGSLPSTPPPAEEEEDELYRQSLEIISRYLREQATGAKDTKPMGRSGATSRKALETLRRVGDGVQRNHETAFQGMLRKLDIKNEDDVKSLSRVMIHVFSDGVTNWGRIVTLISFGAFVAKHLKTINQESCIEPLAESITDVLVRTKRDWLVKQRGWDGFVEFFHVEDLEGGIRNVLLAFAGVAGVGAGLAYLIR

**Q.** For O=C(Nc1nccs1)c1cc(-c2ccco2)nc2ccccc12, which IC50 [1] is on record?
**A.** > 49.8 µM (not active)

**Q.** And the IC50 [2]?
**A.** 6.87 µM (active)

**Q.** What about the IC50 [3] of the same compound?
**A.** 24.2 µM (active)

**Q.** What about the IC50 [4] of the same compound?
**A.** 2.5 µM (active)

**Q.** What about the IC50 [5] of the same compound?
**A.** > 64 µM (inactive)

**Q.** And the IC50 [6]?
**A.** 3.98 µM (active)

**Q.** With CCOc1ccc(OCC(O)CNC2CCN(Cc3ccccc3)CC2)cc1 (configuration not stated) as the compound, how does the EC50 [7] read?
**A.** < 0.1 µM (active)

**Q.** What about the EC50 [8] of the same compound?
**A.** 9.8 µM (active)

**Q.** What about the EC50 [9] of the same compound?
**A.** 0.255 µM (active)

**Q.** Which IC50 [10] does the source give for CN1CC[C@@]2(C)c3cc(O)ccc3N(C)C2O1 (some centres not stated) here?
**A.** 52.3 µM (not active)

**Q.** And the IC50 [11]?
**A.** > 7.45 µM (active)

**Q.** And the IC50 [12]?
**A.** > 100 µM (inactive)

**Q.** And the IC50 [13]?
**A.** 14.3 µM (active)

**Q.** And the IC50 [14]?
**A.** 11.9 µM (active)

**Q.** What about the IC50 [15] of the same compound?
**A.** 10.7 µM (active)

**Q.** Which IC50 [16] does the source give for COc1ccc(NC(=O)ON=C2c3ccccc3-c3ccccc32)cc1 here?
**A.** > 100 µM (active)

**Q.** With CCCOC(=O)c1ccc(O)c(OC)c1 as the compound, how does the EC50 [17] read?
**A.** 468 µM (not active)

**Q.** What about the IC50 [18] of the same compound?
**A.** 127 µM (active)

**Q.** What does the source list for Cc1ccc(Nc2nc(-c3ccncc3)cs2)cc1?
**A.** EC50 [19]: 0.149 µM (active); EC50 [7]: 0.239 µM (active); IC50 [20]: 2.71 µM (active); EC50 [8]: 8.83 µM (active)
